Test system: phosphorylated PKB (Ser473)
Test: Western blot of active
Format: cell-based, human
Settings: PANC-1, CFPAC-1 and HPAF-II cell lysates (all three cell lines); 1 μM wortmannin for 10 min prior to lysis

COC[C@H]1OC(=O)c2coc3c2[C@@]1(C)C1=C(C3=O)[C@@H]2CCC(=O)[C@@]2(C)C[C@H]1OC(C)=O [wortmannin]
amount of phosphorylated Ser473 (pSer473) of PKB by Western blot: decreased
